Experimental data taken from patent US20260183297A1, “SELECTION OF PATIENTS FOR THE TREATMENT OF FADS1-MEDIATED DISEASES OR DISORDERS USING FADS-1 INHIBITORS” (AMGEN INC., priority 2022, published 2026).

Key:
[1] = biological target: T1, human FADS1 (Homo sapiens, UniProt O60427); test: In vitro FADS1 activity assay (HEK 293 cells with FADS1 BacMam, 13C5-DGLA substrate); type: cell-based; details: in vitro; read-out: half-maximal inhibitory concentration (IC50) against human FADS1
T1 construct: expressed in transfected cells; host or cells: HEK 293 cells transduced with FADS1 BacMam (MOI 25)
Description: HEK 293 cells in Dulbecco's Modified Eagle's medium (DMEM), 10% fetal bovine serum (FBS), 1× penicillin-streptomycin-glutamine (PSG) were mixed with FADS1 BacMam or FADS2 BacMam reagents at multiplicity of infection (MOI) ratio of 25 and plated in a in 96-well poly-D-lysine-coated plate. Plates were incubated in a 37° C., 5% CO2 for 24 hours. Cells were washed with DPBS and cells were incubated with 90 ml of compound dilution in DPBS at 5% CO2, 37° C. for 20 minutes. Ten L of the substrate, ^13C5-DGLA (FADS1), or 13C-LA (FADS2) diluted in DPBS were added to the cells and incubated at 5% CO2, 37° C. for 30 minutes (FADS1) or 45 minutes (FADS2). Cells were then washed with DPBS and 50 μL of 2N NaOH were added to each well and incubated in a 65° C. oven for 1 hour for the saponification reaction. […] Samples were then subjected to LC-MS/MS detection for the following analytes for the FADS1 reaction: ^13C5-DGLA and ^13C5-AA or the following analytes for the FADS2 reaction: ^13C18-LA, ^13C18-GLA, ^13C18-DGLA and ^13C18-AA. Samples were injected onto a Poroshell 120 EC-C18 3.0×50 mm, 1.9 um id column (Agilent, Santa Clara, CA).
The analyte peak areas were quantified by using the Analyst software (SCIEX, Framingham, MA). The percent of substrate to product conversion relative to untreated control were calculated (percent of control [POC]). […]

[2] = test system: liver, EPI WAT and ING WAT; test: RNA-Seq analysis of liver, EPI WAT and ING WAT; type: in vivo, mouse; details: 30 mg/kg, 54 days
Description: RNA was extracted by using the Qiagen RNeasy 96 Universal kit (QIAGEN, Germantown, MD). The concentration and quality of the isolated RNA samples were assessed and determined on an Agilent 4200 TapeStation system and had RNA integrity numbers more than 9.1. Adipose or liver RNA (250 ng) was used to prepare a cDNA library by using a protocol modified from the Illumina TruSeq Stranded mRNA kit (Illumina, San Diego CA). Briefly, after polyA^+ RNA selection, fragmentation, and priming, the fragmented RNA was transcribed to cDNA in the reaction of reverse transcription containing SuperScript™ II (Thermo Fisher Scientific—Invitrogen™, Waltham, MA) and RNase-out (Thermo Fisher Scientific—Invitrogen™, Waltham, MA) and, sequentially, the products of the first strand cDNA synthesis reaction were converted to double-stranded cDNAs and subjected to end repair, A-tailing, and adapter ligation by following the commercial instruction. The constructed libraries were amplified and barcoded using the PCR program: a denaturation step at 98° C. for 30 seconds, 15 cycles of 95° C. for 10 seconds, 60° C. for 30 seconds, and 72° C. for 30 seconds, and a 72° C. extension cycle for 5 minutes followed by a hold step at 4° C. Libraries were sequenced to a minimum depth of 30 million paired end reads on an Illumina HiSeq4000 with the 100 nt or 150 nt read length.
RNA-Seq sequencing reads of the mouse samples were aligned and processed using OSA aligner, which is implemented in the OmicSoft Array Suite (QIAGEN OmicSoft, Cary, NC), based on mouse genome version GRCm38 and gene model GENCODE v19. Read count quantification was performed to the gene level based on OmicSoft implementation of RSEM. Downstream analysis using the read count output was performed following the standard RNA-seq workflow of DESeq2 R/Bioconductor package. Briefly, raw read count was transformed and nonnalized using the Variance Stabilizing Transformation (VST) method. Principal component analysis (PCA) was carried out by the plotPCA function using top 1000 variable genes. Differential expression analysis based on the negative binomial distribution was performed using the DESeq function.
Gene expression was represented as normalized fragments per kilobase per million reads (FPKM). FPKM values were further normalized with a refinement of the commonly employed upper-quartile method that sets the FPKM to a value of 10 at the 70th percentile. Lowly expressed genes with fewer than five samples at FPKM≥1 were removed. Genes with Benjamini-Hochberg (BH)-adjusted P value <0.01 and fold change ≥2 or ≤0.5 were selected as DEGs. Volcano plots of differential expression analysis results were made using EnhancedVolcano R package (github.com/kevinblighe/EnhancedVolcano).
The selected DEGs were annotated by IPA (QIAGEN, Redwood City, CA) on canonical pathways and toxicity lists. Gene expression enrichment in Gene Ontology (GO), KEGG was analyzed by using Cluster Profiler R package with default parameters. Deconvolution analysis was performed using MuSiC software v0.2.0 to estimate relative cell type abundance in each mouse bulk tissue samples. The Tabula Muris single-cell RNA-seq data set was used as a reference for MuSiC algorithm. The analysis was done separately for each tissue types including EPI and ING WAT, and liver.

[3] = Liver triglyceride measurement; type: in vivo, mouse; details: DIO mice, 8 weeks of 10 or 30 mg/kg
Description: Liver total lipids were homogenized and extracted using chloroform methanol solution at a ratio of 2:1. Extracted lipids were dried under nitrogen gas and suspended in 90% isopropanol, 10% Triton X-100 solution. Liver triglyceride levels in mg/g tissue were determined using total triglyceride measurement kits from Wako Diagnostics (Richmond, VA) and Sigma-Aldrich (Burlington, MA).

[4] = Tissue endocannabinoid measurement (2-AG, AEA); type: in vivo, mouse; details: liver and ING WAT, DIO mice, 30 mg/kg
Description: Approximately 200 mg of tissue per sample were used for endocannbabinoid extraction. To each frozen tissue sample, 10 μl of ice-cold 100 mM butylated hydroxytoluene (BHT; in methanol) and 0.5 ml of 100 nM AEA-d8 (in water) were added. Tissue sample solution with BHT were immediately homogenized using TissueLyser (QIAGEN, Germantown. MD) for 3 minutes at 30 Hz, followed by two consecutive 1.25 ml of ice-cold ethyl acetate:hexane (9:1) extraction. The pooled extracts were dried to complete dryness under nitrogen gas. Dried samples were redissolved in 80% acetonitrile and subjected to LC/MS analysis. 10 μl of sample was injected onto a Kinetex C18 2.1×100 mm, 2.6 μm column (Phenomenex, Torrance, CA). Mobile phase A is 0.2% acetic acid in water and mobile phase B is 0.1% formic acid in acetonitrile. The LC gradient was a 7-minute long method at a flow rate of 0.2 ml/minute consisting of an isocratic period from 0 to 1 minute at 75% B, followed by a gradient from 75 to 100% from 1 to 4 minutes, and 100 to 75% B from 4 to 7 minutes. The analyte peak areas were quantified using the Analyst software (SCIEX, Framingham MA).

T1 sequence (O60427 whole entry): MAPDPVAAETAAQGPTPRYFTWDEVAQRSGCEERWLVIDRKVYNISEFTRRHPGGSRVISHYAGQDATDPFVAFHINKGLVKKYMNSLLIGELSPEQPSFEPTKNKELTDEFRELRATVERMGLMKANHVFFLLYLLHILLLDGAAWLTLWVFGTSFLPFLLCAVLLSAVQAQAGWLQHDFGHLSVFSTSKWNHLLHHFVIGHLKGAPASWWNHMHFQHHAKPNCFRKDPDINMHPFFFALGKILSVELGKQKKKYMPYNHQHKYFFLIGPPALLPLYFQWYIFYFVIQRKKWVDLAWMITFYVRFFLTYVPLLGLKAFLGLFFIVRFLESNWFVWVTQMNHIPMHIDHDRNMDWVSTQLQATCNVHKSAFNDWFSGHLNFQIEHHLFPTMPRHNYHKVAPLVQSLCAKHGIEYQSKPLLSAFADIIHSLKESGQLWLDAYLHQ

IC50 [1]: 3 nM
hepatic triglyceride content [3]: No apparent increase
SMILES: COc1ccn2c(=O)c(-c3cnn(CC(F)(F)C(F)(F)F)c3)c(C(F)(F)F)nc2c1 [Compound A, 8-methoxy-3-(1-(2,2,3,3,3-pentafluoropropyl)-1H-pyrazol-4-yl)-2-(trifluoromethyl)-4H-pyrido[1,2-a]pyrimidin-4-one]
downregulated pathways (IPA) in the liver ([2]; Compound A-treated WT DIO mice): downregulation of Acute Phase Response. AMPK Signaling, and Senescence pathways
upregulated pathways (IPA) in the liver ([2]; Compound A-treated WT DIO mice): upregulation of Calcium Signaling, PPARα/RXRα Activation, and Xenobiotic metabolism AHR Signaling pathways
Insulin Receptor Signaling pathway (IPA) in EPI WAT ([2]; DIO mice): increased
fatty acid oxidation-related genes (Cpt1a, Acox1, Acaa1a, Fgf21) in the liver ([2]; DIO mice): increased
inflammation-related genes (Cc12, Cd14, Cd68) in ING WAT ([2]; DIO mice): decreased
lipolysis (Lipe, Mg11, Pnpla2) and insulin-signaling genes (Insr, Irs1, Slc2a4) in EPI WAT ([2]; DIO mice): increased
cellular composition of EPI WAT (immune cell population) ([2]; DIO mice, relative to WT vehicle): decreases in T cells, B cells, and natural killer cells
endocannabinoid (2-AG, AEA) levels [4]: Decreased levels of endocannabinoids
